Here are results for 3 molecules from patent US5155031A, “Use of pervanadate as an inhibitor of phosphotyrosine phosphatase” (priority 1990, dated 1992).

“Also recorded” adds a separate entry of the source. Where two headings read alike, the source gives them in different places.

For one data set, the system named is alkaline phosphatase. Put plainly: alkaline phosphatase catalyzed dephosphorylation of the lectin-purified insulin receptor. The data set is classed as biochemical. As to the method: To do so, lectin-purified insulin receptor (6.0 fmol of insulin binding) was preincubated with 10^-7 M insulin for 60 min at 4° C. Phosphorylation was initiated by addition of [γ^-32 P]ATP, and the insulin receptor was immunoprecipitated by incubating with anti-insulin receptor antibody (140 μg of protein) for 4h at 4° C. followed by incubation with protein A-SEPHAROSE * beads for 1 h at 4° C. The immunoprecipitate was washed twice with 50 mM HEPES buffer, pH 7.6, containing 0.1% TRITON X-100 * detergent and 0.1% SDS and once with the above buffer without SDS. After being washed, the immunoprecipitate was incubated with or without the indicated concentrations of vanadate, H2 O2, or pervanadate in the presence or absence of a 15 units.mL solution of alkaline phosphatase for 60 min at 4° C. with vigorous shaking. This sample was washed twice with 50 mM HEPES buffer, pH 7.6, containing 0.1% TRITON X-100 * detergent and subjected to SDS-PAGE followed by radioautography as shown in FIG. 1. Densitometric scanning of the radioautographs was done with a ZEINER * soft laser scanning densitometer (Model SL-504-XL).

The subject of data set [1] is rat hepatocyte phosphotyrosine phosphatase. Put plainly: insulin receptor tyrosine dephosphorylation catalyzed by crude phosphotyrosine phosphatase from rat liver microsomes. It is filed as biochemical. As to the method: Since vanadate and pervanadate may have different specificities for various phosphoprotein phosphatases, their inhibitory effects were separated tested on insulin receptor tyrosine dephosphorylation catalyzed by a crude preparation of phosphotyrosine phosphatase activity extracted from rat liver microsomes.
The samples were processed as in example 1, except that after being washed, the immunoprecipitate was incubated with or without 10^-4 M vanadate, 10^-4 M H2 O2 or 10^-4 m pervanadate in the presence or absence of an equal volume, 50 μL, of rat hepatocyte phosphotyrosine phosphatase (as described above) for 20 min at 30° C. with vigorous shaking.

Another data set has as its system tyrosine phosphatases. Conditions: cited from earlier work.
For data set [2], the target named is T1, insulin receptor (Rattus norvegicus, UniProt P15127).
T1 construct: Insulin receptors were solubilized and partially purified by WGA chromatography; endogenous in cells; host or cells: isolated rat adipocytes
T1 sequence (P15127 764-1383 limits assumed): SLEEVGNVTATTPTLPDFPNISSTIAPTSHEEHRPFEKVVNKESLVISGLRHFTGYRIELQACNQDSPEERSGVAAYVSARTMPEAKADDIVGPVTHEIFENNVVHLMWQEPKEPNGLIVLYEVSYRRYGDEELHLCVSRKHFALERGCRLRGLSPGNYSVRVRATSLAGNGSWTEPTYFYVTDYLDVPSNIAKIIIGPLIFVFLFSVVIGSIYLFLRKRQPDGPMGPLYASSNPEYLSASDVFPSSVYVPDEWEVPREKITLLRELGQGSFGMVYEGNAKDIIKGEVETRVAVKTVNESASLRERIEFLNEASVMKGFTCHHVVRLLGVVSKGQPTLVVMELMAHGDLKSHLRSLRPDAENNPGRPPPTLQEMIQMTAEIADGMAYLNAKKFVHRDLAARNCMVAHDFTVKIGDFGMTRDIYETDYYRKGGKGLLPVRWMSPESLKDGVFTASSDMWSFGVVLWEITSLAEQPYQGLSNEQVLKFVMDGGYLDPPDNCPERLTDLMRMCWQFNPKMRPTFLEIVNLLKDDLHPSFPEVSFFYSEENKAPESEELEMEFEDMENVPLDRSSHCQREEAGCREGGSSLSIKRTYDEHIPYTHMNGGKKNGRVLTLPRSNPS
T1 sequence (P15127 27-759 partner limits assumed): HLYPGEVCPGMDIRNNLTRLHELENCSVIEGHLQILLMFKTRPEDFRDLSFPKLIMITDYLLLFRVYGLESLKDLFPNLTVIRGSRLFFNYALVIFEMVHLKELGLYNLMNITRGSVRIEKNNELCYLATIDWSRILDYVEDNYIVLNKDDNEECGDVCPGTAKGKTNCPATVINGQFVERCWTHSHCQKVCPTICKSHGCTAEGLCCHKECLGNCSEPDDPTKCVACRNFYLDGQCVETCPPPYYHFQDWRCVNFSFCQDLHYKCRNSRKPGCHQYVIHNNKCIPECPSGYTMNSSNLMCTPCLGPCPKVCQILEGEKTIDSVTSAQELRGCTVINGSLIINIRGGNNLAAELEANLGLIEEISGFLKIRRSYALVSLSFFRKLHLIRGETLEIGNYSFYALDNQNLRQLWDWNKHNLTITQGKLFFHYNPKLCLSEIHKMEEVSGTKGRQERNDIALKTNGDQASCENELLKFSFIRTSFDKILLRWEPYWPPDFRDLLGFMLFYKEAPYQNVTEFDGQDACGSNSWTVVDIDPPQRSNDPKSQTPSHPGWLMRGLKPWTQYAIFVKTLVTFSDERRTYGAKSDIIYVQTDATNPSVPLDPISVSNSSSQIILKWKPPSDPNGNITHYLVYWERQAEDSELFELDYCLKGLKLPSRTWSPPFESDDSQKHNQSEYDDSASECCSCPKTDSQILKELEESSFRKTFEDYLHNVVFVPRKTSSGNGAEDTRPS
Put plainly: Insulin Receptor Autophosphorylation Assay. The data set is classed as biochemical. The note with it: 10^-3 to 10^-7 M, 15 min, 37° C.; WGA-purified adipocyte insulin receptors. On the procedure: To elucidate further the mechanism of action of pervanadate, this compound was added in vitro to solubilized WGA-purified adipocyte insulin receptors.
Isolated rat adipocytes were incubated with different concentrations of pervanadate (10^-3 to 10^-7 M), 10 ng/mL (1.7×10^-9 M) insulin, or no additions for 15 min at 37° C. Insulin receptors were solubilized and partially purified by WGA chromatography. […] An aliquot of insulin receptor (5-10 fmol of insulin binding) was used in the autophosphorylation assay as described below, in the presence or absence of in vitro insulin, followed by SDS-PAGE and radioautography.
The Insulin Receptor Autophosphorylation Assay proceeded as follows: lectin-purified insulin receptor (5-10 fmol of insulin binding) was incubated with or without 10^-7 M insulin in a 50 mM HEPES buffer containing 8 mM MnCl2, 10 mM MgCl2, 270 μM dithiothreitol, and 10 μg/mL bovine serum albumin for 1 h at 4° C., in a total volume of 90 μL. The phosphorylation reaction was initiated by the addition of 10 μL of diluted [γ^-32 P]ATP (10 Ci/mmol) to a final concentration of 50 μM, and the reaction mixture was further incubated for 15 min at 4° C. […]

Data set [3] is described as follows: stability of the pervanadate solution. It is filed as physicochemical. The note with it: after catalase 200 μg/mL to remove residual H2 O2. As to the method:
The vanadate solution used in the examples presented below was prepared as described in Kadota et al. supra, to avoid changes in pH and the generation of colored decavanadate (orange-yellow) or vanadyl ion, VO^2+ (blue). The solution of pervanadate was prepared by mixing vanadate or vanadate containing substance with H2 O2 or a peroxide-containing substance (10^-3 M unless otherwise indicated) for 15 min at 22° C. This was followed by the addition of catalase, 200 μg/mL, to remove residual H2 O2. […] The concentration of pervanadate generated is denoted by the vanadate concentration added to the mixture.

In data set [4] the test system is insulin receptor. Conditions: adipocytes, cited from earlier work.
The test system of another data set is tyrosine kinase. Conditions: cited from earlier work.
[5] abbreviates: increasing concentrations, 15 units/mL alkaline phosphatase, 60 min, 4° C., SDS-PAGE, radioautography.

Turning to `OO` [H2 O2, hydrogen peroxide, reference compound], the “inhibition of alkaline phosphatase-catalyzed dephosphorylation of 32P-labeled insulin receptor β-subunit” value in the data set with alkaline phosphatase (10^-3 M alone) is “without effect”. The “inhibition of insulin receptor tyrosine dephosphorylation catalyzed by rat hepatocyte phosphotyrosine phosphatase” value in data set [1] is “without effect”.

`[O]=[V]([O-])([O-])[O-]` [vanadate]: the “inhibition of alkaline phosphatase-catalyzed dephosphorylation of 32P-labeled insulin receptor β-subunit” value in the data set with alkaline phosphatase (setting [5]) was “inhibited the dephosphorylation of the ^32 P-labeled insulin receptor in a dose- dependent manner”. For the same molecule, in data set [1] (10^-4 M, 20 min, 30° C.), the “inhibition of insulin receptor tyrosine dephosphorylation catalyzed by rat hepatocyte phosphotyrosine phosphatase” value was “inhibited dephosphorylation but with less efficacy”. For the same molecule, the “inhibition of tyrosine phosphatases” value in the data set with tyrosine phosphatases is on record as “inhibit tyrosine phosphatases”.

With pervanadate, in the data set on alkaline phosphatase (setting [5]), the “inhibition of alkaline phosphatase-catalyzed dephosphorylation of 32P-labeled insulin receptor β-subunit” value is listed as “much less than that by vanadate alone; also recorded: does not inhibit”. For the same molecule, in data set [1] (10^-4 M, 20 min, 30° C.), the “inhibition of insulin receptor tyrosine dephosphorylation catalyzed by rat hepatocyte phosphotyrosine phosphatase” value is given as “powerfully inhibited tyrosine dephosphorylation; also recorded: potent inhibitor; also recorded: more efficacious than vanadate”. For the same molecule, the “stimulation of insulin receptor autophosphorylation” value on insulin receptor [2] is “did not significantly stimulate autophosphorylation”. The “time the peroxidized form of vanadate is stable without further addition of H2 O2” value in data set [3] is recorded as 2 h. In the data set with insulin receptor [4], the “in situ tyrosine phosphorylation of the insulin receptor” value was “maximal effects similar to that of insulin”. For the same molecule, the “activation of the insulin receptor kinase” value in the data set on insulin receptor [4] (time course versus insulin) is “activates the insulin receptor kinase but with a slower time course than insulin”. Further, the “stimulation of autophosphorylation of exogenous tyrosine kinase activity” value with tyrosine kinase is “does not either stimulate”.
